Publication PMC3284447, “In vivo antinociception of potent mu opioid agonist tetrapeptide analogues and comparison with a compact opioid agonist - neurokinin 1 receptor antagonist chimera” (Molecular Brain, 2012)
Entries after “also recorded” stand apart in the source; their conditions may differ. Read-outs that look alike come from different tables or passages of the source. Square brackets hold non-standard residues; d marks the D form. Dmt = Cc1cc(O)cc(C)c1C[C@H](N)C(=O)O; dNMeA = CN[C@H](C)C(=O)O; Sar = CNCC(=O)O

What was measured:
[1] = cited from earlier work
Source text: (§1) The structure differs from BVD03 only in the amide nitrogen N-methyl group and side chain of the second residue in the peptide sequence (Figure 1). When an activity comparison is made between the two ...

[2] = tested on: DOR; assay: DOR binding, displacement of [^3H]diprenorphine in HEK293 cells; settings: BVD03 in comparison to BVD02, Ki
[3] = tested on: MOR; assay: MOR binding, displacement of [^3H]diprenorphine in HEK293 cells; settings: BVD03 in comparison to BVD02, Ki
[4] = tested on: MOR; settings: forskolin-stimulated cAMP accumulation, agonist; cited from earlier work
Source text: (§2) Table 1 In vitro functional activities and affinities of opioid- and opioid-NK1 ligands | column: MOR EC50 (nM)^c, d || The potent antinociceptive effects of the investigated structures after peripheral administration indicate that all four peptidic compounds are able to cross the BBB. […] The observed effects are in agreement with earlier in vitro binding data obtained for these peptides (BVD02 ...

[5] = tested on: MOR; assay: forskolin-stimulated cAMP accumulation, MOR agonism; assay type: cell-based; settings: BVD03 in comparison to BVD02, EC50 cAMP
[6] = tested on: male C57Bl6 mice; assay: hot water tail-flick test, acute antinociception after i.v. administration; assay type: in vivo, mouse; settings: for analgesic effect compared with morphine: morphine 4 mg/kg i.p.
Experimental: (§3) Nociceptive responses to thermally-induced pain were assessed by the hot water tail-flick test using male C57Bl6 mice. Animals (weighing 25-28 g) were maintained on a normal light-dark cycle and testing occurred during the light cycle. Mice were injected intravenously (i.v.) with the examined drug, dissolved in saline, at different doses. For the verification of drug-induced antinociceptive tolerance, the investigated compounds were administered (i.v.) once per day for 5 days (2 and 4 mg/kg for SBCHM01 and 4 mg/kg for both AN81 and BVD03) and the analgesic effect was measured on the first and the fifth day of the experiment. In each case (both acute and chronic treatment) the effect was measured over a minimum time period of 120 minutes. The antinociceptive effect was measured in triplicate at the following time points post-injection: 5, 15, 30, 60, 120 min (and 180 min for SBCHM01; due to the strong and long-lasting analgesic effect produced by AN81 (Figure 2C), there was no possibility to prolong the experiment, which - if prolonged - could in consequence cause major damage to the animal's tail, thus giving spurious nociceptive responses). Responses to thermal hot stimulus were assessed by the latency with which the mouse removed its tail from 55°C water. A cut-off time of 10 s was used in order to prevent tissue damage.
(§4) In order to compare the antinociceptive effect induced by the examined drugs, morphine was used as a standard reference.
(§5) Data are presented as means ± standard errors of the mean (SEM). All of the calculations and statistical analysis were performed using Prism 5.0 (Graph Pad Software, San Diego, CA, USA). The nociceptive scores were analyzed using a two-way Anova with Bonferroni's post hoc test. The p value (the value of probability) as well as inferential statistics - F test, which include information about the obtained magnitude or value of the test statistic and degrees of freedom, are represented.

[7] = biological target: MOR; settings: [^3H]diprenorphine, HEK293 cells stably expressing MOR; cited from earlier work
Source text: as §2, with “Ki (nM)^e, f” for “EC50 (nM)^c, d”

[8] = biological target: DOR; settings: [^3H]diprenorphine, HEK293 cells stably expressing DOR; cited from earlier work
Source text: as §2, with “DOR Ki (nM)^e, f” for “MOR EC50 (nM)^c, d”

[9] = biological target: KOR; settings: cited from earlier work
Source text: Table 1 In vitro functional activities and affinities of opioid- and opioid-NK1 ligands | column: KOR Ki (nM)^e, f

[10] = tested on: male C57Bl6 mice; assay: hot water tail-flick test, tolerance after daily i.v. administration for 5 days; assay type: in vivo, mouse; settings: for tolerance development after repetitive administration: daily for 5 days, i.v. (morphine i.p.), measured on day 5; for %MPE: ± SEM of 7-10 animals
Experimental: as §3, §4, §5

[11] = tested on: DOR; settings: forskolin-stimulated cAMP accumulation, agonist; cited from earlier work
Source text: as §2, with “DOR” for “MOR”

[12] = tested on: DOR; design: method as in PMID 21413804; settings: MVD tissue bioassay; means of 3-6 experiments ± SEM; cited from earlier work
[13] = tested on: MOR/DOR; settings: cited from earlier work
Source text: as §1

[14] = biological target: DOR; design: method as in PMID 21413804; settings: [^3H]DSLET, rat brain membrane; cited from earlier work
[15] = biological target: MOR; design: method as in PMID 21413804; settings: [^3H]DAMGO, rat brain membrane; cited from earlier work
[16] = tested on: male CD1 mice; assay: radiant heat tail-flick test after s.c. administration; assay type: in vivo, mouse
Experimental: as §4
In order to determine the duration of drug activity, s.c. drug administration into male CD1 mice (27-33 g; Charles River Laboratories, Sulzfeld, Germany) was performed. In addition to a thermal nociceptive stimulus, the alternative light beam-based tail-flick assay was performed using an UB 37360 Ugo Basile analgesiometer (Ugo Basile s.r.l., Varese, Italy). The reaction time required by the mouse to remove its tail due to the radiant heat was measured and defined as the tail-flick latency. A cut-off time of 10 s was used in order to minimize tissue damage. Tail-flick latencies were measured before (baseline) and after drug s.c. administration (30 min, 1 h, 2 h, 3 h, 4 h, 5 h, 6 h and 7 h), the antinociceptive effect was scored as a percentage of the maximal possible effect (% MPE), according to formula presented above. Drugs were dissolved in sterile physiological saline (0.9%) and were administered s.c. in a volume of 10 μl per 1 g body weight. The animal procedures were approved by the Austrian Ethical Committee on Animal Care and Use in line with international laws and policies.
as §5

[17] = tested on: MOR; design: method as in PMID 21413804; settings: GPI tissue bioassay; means of 3-6 experiments ± SEM; cited from earlier work
[18] = tested on: male, Sprague-Dawley rats; settings: TY005, rats; i.t. administration, paw withdrawal test; cited from earlier work
Source text: Recently, Vanderah and coworkers reported the detailed in vivo evaluation of H-Tyr-D-Ala-Gly-Phe-Met-Pro-Leu-Trp-O-3',5'-Bn(CF3)2 (TY005) in several animal assays to define the role of this compound in thermal and tactile stimuli in uninjured, sham- and nerve-injured male, Sprague-Dawley rats. They observed that this compound was able to exert the desired dual activity in vivo. […] This is in contrast to the current study, where the hot water tail-flick assay served as a model for acute pain and in which the drug was injected intravenously. […] For a general clinical applicability, an important goal in pain research consists of the discovery and development of improved analgesic drugs which could be admi ...

[19] = i.v., 0.5 mg/kg, 60 min, ± SEM of 6-10 mice, p > 0.05 vs morphine
[20] = [^3H]diprenorphine, HEK293 cells stably expressing KOR
[21] = i.v., 1 mg/kg, 30 min, ± SEM of 6-10 mice, p > 0.05 vs morphine

Compound: H-Dmt-D-Arg-Phe-Lys-NH2 [Dmt^1-DALDA]
- opioid analgesic potency [1]: potent opioid analgesic

Compound: H-Dmt-NMe-D-Ala-Aba-Gly-NH2 [BVD03]
- fold increase in DOR affinity vs BVD02 [2]: 26 fold
- factor of superior MOR binding vs BVD02 [3]: 4
- EC50 [4]: 0.00174 ± 0.00034 nM
- factor of superior MOR potency vs BVD02 [5]: 45
- %MPE ([6]; i.v., 0.25 mg/kg (similar at 4 and 0.5 mg/kg), 15 min): 35-40%
- %MPE ([6]; i.v., 0.25 mg/kg, 2 h, maximum level, ± SEM of 6-10 mice): 57.48 ± 17.57%
- %MPE [6, 19]: 88.41 ± 7.15%
- %MPE ([6]; i.v., 0.5 mg/kg, 120 min, ± SEM of 6-10 mice, p > 0.05 vs morphine): 84.29 ± 6.46%
- %MPE ([6]; i.v., 1 mg/kg, 60 min, ± SEM of 6-10 mice, p > 0.05 vs morphine): 89.21 ± 5.22%
- %MPE ([6]; i.v., 1 mg/kg, 120 min, ± SEM of 6-10 mice, p > 0.05 vs morphine): 86.69 ± 5.52%
- %MPE ([6]; i.v., 4 mg/kg, 60 min, ± SEM of 6-10 mice, p > 0.05 vs morphine): 68.78 ± 7.18%
- %MPE ([6]; i.v., 4 mg/kg, 120 min, ± SEM, vs morphine: BVD03 p < 0.05, SBCHM01 p > 0.05): 50.06 ± 6.84%
- antinociception after 2 hours ([6]; i.v., all doses except 0.25 mg/kg): drop in antinociception after 2 hours
- Ki [7]: 0.015 ± 0.002 µM
- Ki [8]: 0.005 ± 0.003 µM
- Ki [9, 20]: > 1000 µM
- tolerance development after repetitive administration [10]: leads to the development of tolerance
- %MPE ([10]; day 1, i.v., 4 mg/kg, 1 h): 68.78 ± 7.18%
- difference from morphine on first day ([10]; day 1, i.v., 4 mg/kg, 7-10 animals): significant differences (**p < 0.01) when compared to morphine
- %MPE ([10]; day 5, i.v., 4 mg/kg daily, 60 min): 18.14 ± 6.84%
- EC50 [11]: 0.016 ± 0.009 nM

Compound: H-[Dmt][dNMeA]F[Sar]-NH2 [BVD02, opioid tetrapeptide, "ring opened" analogue]
- EC50 [4]: 0.079 ± 0.0065 nM
- %MPE [6, 19]: 56.77 ± 13.57%
- %MPE [6, 21]: 74.77 ± 13.63%
- %MPE ([6]; i.v., 5 mg/kg, 15 min post-injection, 6-10 mice, unchanged within the next hour): 100%
- %MPE ([6]; i.v., 5 mg/kg, 2 h, ± SEM of 6-10 mice, p > 0.05): 96 ± 4%
- antinociceptive activity at 120 min compared to morphine ([6]; i.v., 1 and 0.5 mg/kg, 120 min, p < 0.001 vs morphine): dramatic reduction of activity
- Ki [7]: 0.06 ± 0.003 µM
- Ki [8]: 0.13 ± 0.005 µM
- Ki [9, 20]: > 1000 µM
- EC50 [11]: 4400 ± 500 nM

Compound: H-Dmt-D-Arg-Aba-Gly-NH2 [AN81]
- EC50 [12]: 0.00042 ± 2e-05 µM
- in vitro agonist profile [13]: superagonist profile; also recorded: full MOR/DOR agonist with subnanomolar affinity and tissue bioactivity
- Ki [14]: 0.0006 ± 7e-05 µM
- overall analgesic effect after systemic administration ([6]; compared among the peptides of the study): strongest analgesic effect
- analgesic effect compared with morphine ([6]; i.v., 0.1 mg/kg, 15 min and 120 min): significantly lower analgesic effect
- %MPE ([6]; i.v., 0.1 mg/kg, 2 h, ± SEM of 6-10 mice, p < 0.05 vs morphine): 61.2 ± 6.45%
- %MPE [6, 21]: 95 ± 2.89%
- %MPE ([6]; i.v., 4 mg/kg, 30 min, 6-10 mice, p > 0.05 vs morphine): 100%
- analgesic effect compared with morphine ([6]; i.v., 4, 1 and 0.5 mg/kg, all time points, p > 0.05): no difference in the analgesic effect
- Ki [15]: 0.00015 ± 2e-05 µM
- duration of antinociception ([16]; abstract: very low doses (0.1 mg/kg)): up to 7 hours
- %MPE ([16]; s.c., 1 mg/kg, 7 h, ± SEM of 5-6 mice): 38.4 ± 7.8%
- time of peak antinociception ([16]; s.c., 0.2, 0.5 and 1 mg/kg, 5-6 mice): 1 h
- duration of analgesia ([16]; s.c., 1, 0.5 and 0.2 mg/kg): up to 7 hours
- EC50 [17]: 0.00032 ± 4e-05 µM
- Ki ([9]; [^3H]U69,593, guinea pig brain membrane): 0.118 ± 0.012 µM
- tolerance compared to morphine ([10]; 5 days repetitive administration): markedly lower
- tolerance development after repetitive administration [10]: leads to the development of tolerance; also recorded: partial preservation of analgesia observed after repetitive administration; also recorded: appeared to still induce the development of tolerance
- %MPE ([10]; day 5, i.v., 4 mg/kg daily, last time point (120 min), p < 0.001): 15.83% ± 4.40

Compound: H-Tyr-D-Ala-Gly-Phe-Met-Pro-Leu-Trp-O-3',5'-Bn(CF3)2 [TY005, hybrid opioid-NK1 octapeptide ligand]
- antihyperalgesic tolerance [18]: development of antihyperalgesic tolerance could be suppressed; also recorded: inhibition of antihyperalgesic tolerance; also recorded: able to attenuate tolerance development

Compound: CN1CC[C@]23c4c5ccc(O)c4O[C@H]2[C@@H](O)C=C[C@H]3[C@H]1C5 [morphine, reference compound]
- duration of analgesia ([16]; morphine s.c., more elevated doses relative to AN81): activity drops rapidly over time; also recorded: lost almost all activity over a time period of 2 hours
- tolerance development after repetitive administration [10]: mice had developed opioid-induced tolerance
- potency at 180 min ([10]; day 1, SBCHM01 2 mg/kg i.v., morphine 4 mg/kg i.p.): decrease in potency is clearly visible
